Test results reported in patent US20150283270A1, “MODELING ANTI-LEUKEMIC THERAPY BY PATIENT DERIVED AML XENOGRAFTS WITH DISTINCT PHENOTYPES/GENOTYPES” (Crown Bioscience Inc., priority 2014, published 2015).
“Also recorded” adds a separate entry of the source.

System: AM7577 leukemic cells (hCD45+)
Test: Evaluation of anti-leukemia activity of a therapeutic in AM7577-mice (AML patient derived xenograft)
Assay type: in vivo, NOD/SCID mice
Conditions: for Inhibition of leukemia in blood: FIG. 4 legend; for Leukemic load in peripheral blood (hCD45+): 5-day-on/2-day-off, starting 15 days post-engraftment
Procedure: Animal experiments were conducted at Crown Bioscience's laboratory, China. The transplantation recipient NOD/SCID mice were purchased from Beijing HFK Bioscience at between 3-4 weeks of age. The Institutional Animal Care and Use Committee (IACUC) of Crown Bioscience approved animal study protocols. All procedures were under sterile conditions at Crown Bioscience's SPF facility and conducted in strict accordance with the Guide for the Care and Use of Laboratory Animals of the National Institutes of Health. Ficoll® column isolated MNCs were injected into the tail-vein of 4-week old, sub lethally irradiated NOD/SCID mice ([…]), followed by weekly monitoring for peripheral appearance of leukemic cells (CD45^+) via retro-orbital bleeding and flow analysis. Briefly, ˜50 μL blood was collected into anticoagulative tubes (BD 365974, Becton Dickinson and Co., Franklin Lakes, N.J.). After lysis of red blood cells the cells were stained with 20 μL mouse anti-human CD45 antibody (Biolegend, CA) and incubated on ice for 30 minutes in the dark followed by washing with cold PBS. The cells were resuspended in150 μL PBS and subjected to FACS analysis.
Fifteen days post-engraftment, mice were administered different doses of cytarabine (AraC). Mouse blood was collected by retro-orbital bleed and human CD45^+ cells were quantified weekly by flow cytometry. Body weight and clinical signs were also monitored twice weekly. When mice became morbid due to full-blown leukemia, the animals were sacrificed, followed by gross and microscopic examinations. Major relevant organs (bone marrow, spleen, blood, liver, lymph nodes, etc.) were examined and harvested for further analysis, including IHC (method described previously, Yang, M. et al., Int J Cancer. 2012; Sep. 5. doi: 10.1002/ijc.27813) and immunological phenotyping of the leukemia cells by FACS.
Cytarabine (AraC) is the current standard chemotherapy agent for induction therapy of AML, including AML-M5. We tested AraC anti-leukemic activity against AM7577, by subjecting AM7577-mice to a 5-day-on/2-day-off Ara-C dosing regimen, starting 15 days post-engraftment.
We subsequently explored whether AraC treatment actually cured the disease by withdrawing treatment. The result was rapid relapse just a few days post-treatment withdrawal (FIG. 3A). This observation can potentially be interpreted as AraC has only affected leukemic blasts, but has no affect on LICs.

## CC(C)(C)c1cc(NC(=O)Nc2ccc(-c3cn4c(n3)sc3cc(OCCN5CCOCC5)ccc34)cc2)no1 [AC220]
  Inhibition of leukemia in blood: Inhibition

## Nc1ccn([C@@H]2O[C@H](CO)[C@@H](O)[C@@H]2O)c(=O)n1 [AraC, Cytarabine]
3 mg/kg
  Leukemic load in peripheral blood (hCD45+): no detectable leukemic load
10 mg/kg
  Leukemic load in peripheral blood (hCD45+): no detectable leukemic load
AM7577-mice, after treatment withdrawal
  Relapse after drug withdrawal: rapidly relapsed; also recorded: rapid relapse
AML mouse model AM7577
  Treatment & response: complete remission
Second dosing period after relapse
  Leukemic blasts in peripheral blood on resuming treatment after withdrawal: effectively re-suppressed
Under treatment vs vehicle group
  Survival of AM7577-mice: extended life; also recorded: extended AM7577-mice survival times

## CNC(=O)c1cc(Oc2ccc(NC(=O)Nc3ccc(Cl)c(C(F)(F)F)c3)cc2)ccn1 [sorafenib]
  Inhibition of leukemia in blood: Inhibition
